Our source for the IC95 and IC50 values is patent US7476666B2, “HIV integrase inhibitors” (Merck & Co., Inc., priority 2004, dated 2009).

pIC50: −log10 of the molar value. Where only a bound is given, the exact number is not on record here.

Assay [1] deals with acute HIV infection of T-lymphoid cells. In words: Inhibition of acute HIV infection of T-lymphoid cells (spread assay). The class given is cell-based. Particulars: Human immunodeficiency virus 1. As to the method:
An assay for the inhibition of acute HIV infection of T-lymphoid cells (alternatively referred to herein as the “spread assay”) was conducted in accordance with Vacca, J. P. et al., Proc. Natl. Acad. Sci. USA 1994, 91: 4096.

Assay [2] relates to acute HIV infection with HeLa P4-2 cells. In words: Single cycle infectivity assay with HeLa P4-2 cells (vertical assay). In kind it is cell-based. Conditions: Human immunodeficiency virus 1, HeLaP4-2. As for the experimental part: An assay for measuring the inhibition of acute HIV infection with HeLa P4-2 cells in a single cycle infectivity assay (alternatively referred to herein as the “vertical assay”) was conducted in accordance with Joyce, J. G. et al., J. Biol. Chem. 2002, 277: 45811, Hazuda, D. J. et al., Science, 2000, 287, 646, and Kimpton, J. et al, J. Virol. 1992, 66: 2232.

Assay [3] has as its target T1, recombinant integrase (HIV integrase) (Human immunodeficiency virus type 1 group M subtype B, UniProt P04585).
T1 construct: Strand Transfer Catalyzed by Recombinant Integrase
The experiment in a line: HIV integrase assay: strand transfer catalyzed by recombinant integrase. In kind it is biochemical. Conditions: assay per WO 02/30930, read-out: IC50, inhibition of strand transfer activity of integrase. As to the method: Assays for the strand transfer activity of integrase were conducted in accordance with WO 02/30930 for recombinant integrase.
Further description on conducting the assay using preassembled complexes is found in Wolfe, A. L. et al., J. Virol. 1996, 70: 1424-1432, Hazuda et al., J. Virol. 1997, 71: 7005-7011; Hazuda et al., Drug Design and Discovery 1997, 15: 17-24; and Hazuda et al., Science 2000, 287: 646-650.

A word on the IC95: it is the point of the concentration-response curve where the effect stands at 95%. As usually defined, the pIC50 is the negative decadic logarithm of the IC50, by convention in mol/L. For the molecule `CNC(=O)c1nn2c(c1O)C(=O)N(Cc1ccc(F)cc1)C(C)C2` (centres unmarked) [Example 6, 5-(4-Fluorobenzyl)-3-hydroxy-N-methyl-6-methyl-4-oxo-4,5,6,7-tetrahydropyrazolo[1,5-a]pyrazine-2-carboxamide], the IC95 in assay [1] is over 10 µM. This molecule showed a pIC50 in assay [2] of over 4.40.

Molecule `O=C(NC1CCNCC1)c1nn2c(c1O)C(=O)N(Cc1ccc(F)cc1)CC2` [Example 25, 5-(4-Fluorobenzyl)-3-hydroxy-4-oxo-N-(4-piperidinyl)-4,5,6,7-tetrahydropyrazolo[1,5-a]pyrazine-2-carboxamide] registered an IC95 in assay [1] of over 10 µM. Also, the pIC50 in assay [2] is over 4.40.

On to `O=C(c1nn2c(c1O)C(=O)N(Cc1ccc(F)cc1)CC2)N1CCOCC1` [Example 28, 5-(4-Fluorobenzyl)-3-hydroxy-2-(morpholin-4-ylcarbonyl)-4-oxo-4,5,6,7-tetrahydropyrazolo[1,5-a]pyrazine], for which the IC95 in assay [1] was over 10 µM. In assay [2], this molecule showed a pIC50 of over 4.40.

Turning to `CN1CCn2nc(C(=O)N3CCc4ccccc4C3)c(O)c2C1=O` [Example 14, 3-Hydroxy-5-methyl-4-oxo-2-[(1,2,3,4-tetrahydro-isoquinolin-2-yl)carbonyl]-4,5,6,7-tetrahydropyrazolo[1,5-a]pyrazine], the pIC50 in assay [3] was under 5.00. Further, the IC95 in assay [1] was over 10 µM.

Take `CN1CCn2nc(C(=O)N(CCO)Cc3ccccc3)c(O)c2C1=O` [Example 18, 2-[Benzyl(2-hydroxyethyl)aminocarbonyl]-3-hydroxy-5-methyl-4-oxo-4,5,6,7-tetrahydropyrazolo[1,5-a]pyrazine]: the IC95 in assay [1] is over 10 µM. The molecule further showed a negative logarithm of the IC50 (pIC50) in assay [2] of under 4.00.

In assay [1], `CN(Cc1ccc2nccnc2c1)C(=O)c1nn2c(c1O)C(=O)N(C)CC2` [Example 17, 3-Hydroxy-5-methyl-4-oxo-2-{[quinoxalin-6-ylmethyl(methyl)amino]carbonyl}-4,5,6,7-tetrahydropyrazolo[1,5-a]pyrazine] gave an IC95 of over 10 µM. The pIC50 in assay [2] was over 4.40.

For `CN(C)CCN(Cc1ccccc1)C(=O)c1nn2c(c1O)C(=O)N(C)CC2` [Example 19, 2-{Benzyl[2-(dimethylamino)ethyl]aminocarbonyl}-3-hydroxy-5-methyl-4-oxo-4,5,6,7-tetrahydropyrazolo[1,5-a]pyrazine], the pIC50 was under 5.00 in assay [3] and under 4.00 in assay [2]. Further, the IC95 in assay [1] was over 10 µM.

Consider `COC(=O)c1nn2c(c1O)C(=O)N(Cc1ccc(F)cc1)CC2` [Example 1, Methyl 5-(4-fluorobenzyl)-3-hydroxy-4-oxo-4,5,6,7-tetrahydropyrazolo[1,5-a]pyrazine-2-carboxylate], for which the IC95 in assay [1] is over 10 µM. For the same molecule, the pIC50 in assay [2] is under 4.00.

For the molecule `CN(C)C(=O)C1(C)CN(C)C(=O)c2c(O)c(C(=O)NCc3ccc(F)cc3)nn21` (centres unmarked) [Example 8, 5,7-Dimethyl-N-(4-fluorobenzyl)-3-hydroxy-7-(dimethylaminocarbonyl)-4-oxo-4,5,6,7-tetrahydropyrazolo[1,5-a]pyrazine-2-carboxamide], the IC95 in assay [1] is at most 10 µM.

For the molecule `CN1CCn2nc(C(=O)N3CCCC3c3ccccc3)c(O)c2C1=O` (centres unmarked) [Example 16, 3-Hydroxy-5-methyl-4-oxo-2-[(2-phenylpyrrolidin-1-yl)carbonyl]-4,5,6,7-tetrahydropyrazolo[1,5-a]pyrazine], in assay [3], the pIC50 was under 5.00. This molecule also showed an IC95 in assay [1] of over 10 µM.

Take `O=C(NCCN1CCOCC1)c1nn2c(c1O)C(=O)N(Cc1ccc(F)cc1)CC2` [Example 23, 5-(4-Fluorobenzyl)-3-hydroxy-N-[2-(4-morpholinyl)ethyl]-4-oxo-4,5,6,7-tetrahydropyrazolo[1,5-a]pyrazine-2-carboxamide]: the IC95 in assay [1] is at most 10 µM.

`CN1C[C@H](c2ccccc2)n2nc(C(=O)NCc3ccc(F)cc3C(N)=O)c(O)c2C1=O` [Example 42, (7S)-N-[2-(Aminocarbonyl)-4-fluorobenzyl]-3-hydroxy-5-methyl-4-oxo-7-phenyl-4,5,6,7-tetrahydropyrazolo[1,5-a]pyrazine-2-carboxamide] yielded an IC95 in assay [1] of at most 10 µM.

The molecule `Cc1csc(C2CN(C)C(=O)c3c(O)c(C(=O)NCc4ccc(F)cc4)nn32)n1` (centres unmarked) [Example 11, N-(4-Fluorobenzyl)-3-hydroxy-5-methyl-7-(4-methyl-1,3-thiazol-2-yl)-4-oxo-4,5,6,7-tetrahydropyrazolo[1,5-a]pyrazine-2-carboxamide] yielded an IC95 in assay [1] of at most 10 µM.
